US4914187A, “Ester derivatives of antibiotic L 17046” (Gruppo Lepetit S.p.A, priority 1989, dated 1990)
Converted amounts (≈) assume the structure as drawn.

How the values were obtained:
S. aureus TOUR = test: agar-dilution MIC test; type: cell-based
Text: Isosensitest broth (Oxoid) and Todd-Hewitt broth (Difco) are used for growing staphylococci and streptococci, respectively. […]

E. coli SKF 12140 = test: agar-dilution MIC test; type: cell-based
S. faecalis ATCC 7080 = test: agar-dilution MIC test; type: cell-based
Description: (§1) Isosensitest broth (Oxoid) and Todd-Hewitt broth (Difco) are used for growing staphylococci and streptococci, respectively. Broth cultures are diluted so that the final inoculum is about 10^4 colony forming units/ml (CFU/ml).

[1] = tested on: S. pyogenes C 203 SKF 13400; test: agar-dilution MIC test; type: cell-based
Description: as §1

S. pneumoniae UC 41 = test: agar-dilution MIC test; type: cell-based
Description: as §1

S. aureus ATCC 6538 = test: agar-dilution MIC test; type: cell-based; conditions: 18-24 h at 37° C.
Description: as §1

[2] = tested on: S. epidermidis ATCC 12228; test: agar-dilution MIC test; type: cell-based
Description: as §1

pKa by titration = type: physicochemical; conditions: methylcellulose ®/water 4:1 (v/v), excess 0.01 M hydrogen chloride, titrated with 0.01 M NaOH
Description: ^(c) the samples are dissolved in methylcellulose ®/water 4:1
(v/v), an excess of 0.01 M hydrogen chloride in the same mixture is added
thereto and the resulting solution is titrated with 0.01 M NaOH in the […]

[3] = S. aureus TOUR + 30% bovine serum

| Compound | MIC (S. aureus TOUR; S. aureus TOUR (10^3 CFU/ml)) | MIC (S. aureus TOUR; S. aureus TOUR (10^6 CFU/ml)) | MIC (S. aureus TOUR; [3]) | MIC (E. coli SKF 12140) | MIC (S. faecalis ATCC 7080) | MIC [1] | MIC (S. pneumoniae UC 41) | MIC (S. aureus ATCC 6538) | MIC [2] | pKa (pKa by titration) |
| --- | --- | --- | --- | --- | --- | --- | --- | --- | --- | --- |
| COC(=O)C1NC(=O)C2NC(=O)C(NC(=O)C3NC(=O)C4NC(=O)C(Cc5ccc(c(Cl)c5)Oc5cc3cc(c5O)Oc3ccc(cc3Cl)C2O[C@@H]2O[C@H](CO)[C@@H](O)[C@H](O)[C@H]2NC(C)=O)NC(=O)C(N)c2ccc(O)c(c2)Oc2cc(O)cc4c2)c2ccc(O)c(c2)-c2c(O)cc(O)cc21.Cl (some centres unmarked) [Example 1, antibiotic L 17046 methyl ester, hydrochloride] | 0.125 µg/mL | 0.5 µg/mL | 0.25 µg/mL | 128 µg/mL | 0.5 µg/mL | 0.5 µg/mL | 0.5 µg/mL | 0.125 µg/mL | 0.016 µg/mL | 6.70 |
| CCOC(=O)C1NC(=O)C2NC(=O)C(NC(=O)C3NC(=O)C4NC(=O)C(Cc5ccc(c(Cl)c5)Oc5cc3cc(c5O)Oc3ccc(cc3Cl)C2O[C@@H]2O[C@H](CO)[C@@H](O)[C@H](O)[C@H]2NC(C)=O)NC(=O)C(N)c2ccc(O)c(c2)Oc2cc(O)cc4c2)c2ccc(O)c(c2)-c2c(O)cc(O)cc21.Cl (some centres unmarked) [Example 2, antibiotic L 17046 ethyl ester, hydrochloride] | 0.25 µg/mL | 0.5 µg/mL | 0.5 µg/mL | 128 µg/mL | 0.5 µg/mL | 0.5 µg/mL | 0.5 µg/mL | 0.25 µg/mL | 0.016 µg/mL | 6.68 |
| CCCCOC(=O)C1NC(=O)C2NC(=O)C(NC(=O)C3NC(=O)C4NC(=O)C(Cc5ccc(c(Cl)c5)Oc5cc3cc(c5O)Oc3ccc(cc3Cl)C2O[C@@H]2O[C@H](CO)[C@@H](O)[C@H](O)[C@H]2NC(C)=O)NC(=O)C(N)c2ccc(O)c(c2)Oc2cc(O)cc4c2)c2ccc(O)c(c2)-c2c(O)cc(O)cc21.Cl (some centres unmarked) [Example 3, antibiotic L 17046 n-butyl ester, hydrochloride] | 0.125 µg/mL | 0.25 µg/mL | 0.5 µg/mL | 128 µg/mL | 0.5 µg/mL | 0.25 µg/mL | 0.5 µg/mL | 0.25 µg/mL | 0.016 µg/mL | 6.65 |
| CC(=O)N[C@H]1[C@H](OC2c3ccc(c(Cl)c3)Oc3cc4cc(c3O)Oc3ccc(cc3Cl)CC3NC(=O)C(N)c5ccc(O)c(c5)Oc5cc(O)cc(c5)C(NC3=O)C(=O)NC4C(=O)NC3C(=O)NC2C(=O)NC(C(=O)OCCCl)c2cc(O)cc(O)c2-c2cc3ccc2O)O[C@H](CO)[C@@H](O)[C@@H]1O.Cl (some centres unmarked) [Example 4, antibiotic L 17046 2-chloroethyl ester, hydrochloride] | 0.25 µg/mL | 0.5 µg/mL | 0.5 µg/mL | 128 µg/mL | 0.5 µg/mL | 0.25 µg/mL | 0.5 µg/mL | 0.25 µg/mL | 0.064 µg/mL | 6.67 |
| CC(=O)N[C@H]1[C@H](OC2c3ccc(c(Cl)c3)Oc3cc4cc(c3O)Oc3ccc(cc3Cl)CC3NC(=O)C(N)c5ccc(O)c(c5)Oc5cc(O)cc(c5)C(NC3=O)C(=O)NC4C(=O)NC3C(=O)NC2C(=O)NC(C(=O)OCCCCCl)c2cc(O)cc(O)c2-c2cc3ccc2O)O[C@H](CO)[C@@H](O)[C@@H]1O.Cl (some centres unmarked) [Example 5, antibiotic L 17046 4-chlorobutyl ester, hydrochloride] | 0.125 µg/mL | 0.125 µg/mL | 0.5 µg/mL | 128 µg/mL | 0.25 µg/mL | 0.25 µg/mL | 0.125 µg/mL | 0.25 µg/mL | 0.064 µg/mL | 6.66 |
| CC(=O)N[C@H]1[C@H](OC2c3ccc(c(Cl)c3)Oc3cc4cc(c3O)Oc3ccc(cc3Cl)CC3NC(=O)C(N)c5ccc(O)c(c5)Oc5cc(O)cc(c5)C(NC3=O)C(=O)NC4C(=O)NC3C(=O)NC2C(=O)NC(C(=O)OCc2ccccc2)c2cc(O)cc(O)c2-c2cc3ccc2O)O[C@H](CO)[C@@H](O)[C@@H]1O.O=C(O)C(F)(F)F (some centres unmarked) [Example 8, antibiotic L 17046 benzyl ester trifluoroacetate] | 0.125 µg/mL | 0.125 µg/mL | 4 µg/mL | 64 µg/mL | 0.125 µg/mL | 0.125 µg/mL | 0.25 µg/mL | – | 0.063 µg/mL | – |
| CC(=O)N[C@H]1[C@H](OC2c3ccc(c(Cl)c3)Oc3cc4cc(c3O)Oc3ccc(cc3Cl)CC3NC(=O)C(N)c5ccc(O)c(c5)Oc5cc(O)cc(c5)C(NC3=O)C(=O)NC4C(=O)NC3C(=O)NC2C(=O)NC(C(=O)OCc2ccc(C)cc2)c2cc(O)cc(O)c2-c2cc3ccc2O)O[C@H](CO)[C@@H](O)[C@@H]1O (some centres unmarked) [Example 10, antibiotic L 17046 (4-methyl)-benzyl ester] | 0.125 µg/mL (≈ 0.083 µM) | 0.25 µg/mL (≈ 0.166 µM) | 4 µg/mL | 64 µg/mL (≈ 42.5 µM) | 0.25 µg/mL (≈ 0.166 µM) | 0.125 µg/mL (≈ 0.083 µM) | 0.5 µg/mL (≈ 0.332 µM) | – | 0.063 µg/mL (≈ 0.0418 µM) | – |
| CC(=O)N[C@H]1[C@H](OC2c3ccc(c(Cl)c3)Oc3cc4cc(c3O)Oc3ccc(cc3Cl)CC3NC(=O)C(N)c5ccc(O)c(c5)Oc5cc(O)cc(c5)C(NC3=O)C(=O)NC4C(=O)NC3C(=O)NC2C(=O)NC(C(=O)OCCO)c2cc(O)cc(O)c2-c2cc3ccc2O)O[C@H](CO)[C@@H](O)[C@@H]1O.O=C(O)C(F)(F)F (some centres unmarked) [Example 12, antibiotic L 17046 (2-hydroxy)ethyl ester trifluroacetate] | 0.125 µg/mL | 0.125 µg/mL | 0.5 µg/mL | 128 µg/mL | 0.25 µg/mL | 0.25 µg/mL | 1 µg/mL | – | 0.063 µg/mL | – |
